In PMC9820444, “Design and Synthesis of Acridine-Triazole and Acridine-Thiadiazole Derivatives and Their Inhibitory Effect against Cancer Cells” (International Journal of Molecular Sciences, 2022):
Read-outs that look alike come from different tables or passages of the source. Marks after values point to notes of the source that are not given here.

Key:
[1] = system: human foreskin fibroblasts (HFF); assay: MTT antiproliferative assay, HFF; type: cell-based; details: Homo sapiens, Fibroblast, read-out: Effect against cell viability (IC50), HFF
[2] = system: human gastric cancer cells-803 (MGC-803); assay: MTT antiproliferative assay, MGC-803; type: cell-based; details: Homo sapiens, MGC-803, MTT, read-out: Effect against cell viability (IC50), MGC-803
[3] = system: human normal liver cells (LO2); assay: Cytotoxicity against normal liver cells LO2; type: cell-based; details: Homo sapiens, MTT, read-out: Effect against cell viability (IC50), LO2
[4] = system: MGC80-3 cells; assay: Apoptosis by Annexin V-FITC/PI flow cytometry, MGC80-3; type: cell-based, human; details: control 0.586%
Description: The apoptosis ratios of MGC80-3 or T24 cell lines induced by the selected compounds at the concentration of IC50 and 0.5 IC50 were quantitatively determined by flow cytometry. Four quadrant images (Q1, Q2, Q3 and Q4) were observed by flow cytometric analysis. […] […] After treatment with compound 6h, 5.62% (3.43 μM) and 14.25% (6.85 μM) of the cells were apoptotic. These were higher percentages than the one observed in the control (0.586%). […] The results evidently illustrate that representative compounds 5d and 6h or 4h and 6h could suppress cell proliferation by inducing apoptosis in the early apoptotic period.
(§1) The apoptosis assay and the cell cycle analysis were carried out by cytometry (FACSVerse, BD, Piscataway, NJ, USA) at an excitation wavelength of 488 nm according to the method described in the literature with slight modifications. The cells were seeded at 2 × 10^6/well and washed by cold PBS. The buffer solutions were prepared using 0.1 M pH 7.4 Hepes/NaOH, 1.4 M NaCl, and 25 mM CaCl2.

[5] = system: T24 cells; assay: Apoptosis by Annexin V-FITC/PI flow cytometry, T24; type: cell-based, human; details: T24, at IC50 concentration (4h 8.05 μM; 6h 8.93 μM); control 1.18%
Description: The apoptosis ratios of MGC80-3 or T24 cell lines induced by the selected compounds at the concentration of IC50 and 0.5 IC50 were quantitatively determined by flow cytometry. Four quadrant images (Q1, Q2, Q3 and Q4) were observed by flow cytometric analysis. The results of apoptosis ratios (including the early and late apoptosis ratios) after 12 h are presented in Figure 6 (MGC80-3) and Figure 7 (T24). […] After treatment with compound 6h, 5.62% (3.43 μM) and 14.25% (6.85 μM) of the cells were apoptotic. These were higher percentages than the one observed in the control (0.586%). […] The results evidently illustrate that representative compounds 5d and 6h or 4h and 6h could suppress cell proliferation by inducing apoptosis in the early apoptotic period.
as §1

[6] = system: zebrafish embryos; details: zebrafish embryos 72 hpf
[7] = system: subintestinal veins (SIVs) in zebrafish embryos; assay: Zebrafish angiogenesis assay (subintestinal veins, NBT/BCIP staining); type: in vivo; details: zebrafish embryos, 1 mg/mL, compared with blank control group
From the text: Currently, the zebrafish has emerged as a valuable model organism to substitute traditional models for studying angiogenesis inhibitors. The genes of zebrafish show 70–80% similarity to humans, and the vascular structure of zebrafish has high similarity to that of other vertebrates. Therefore, the subintestinal veins (SIVs) in the zebrafish embryos are used as evaluation indicators for anti-angiogenesis inhibitors. In this study, NBT/BCIP vascular staining was used to observe the angiogenesis effect of representative drugs (4h, 4f, 5d, 5h, 6g and 6h) in a zebrafish model. […] Compared with the blank control group, the area of the meshed pattern vessel and the number of vascular branches in the network decreased after the administration of compounds 4h, 5d, 5h and 6h.
The 24 hpf zebrafish embryos were dechorionated with a 1 gL^−1 pronase treatment and maintained in distilled water in 12-well cell culture plates (each well contained 20 embryos). A negative control group containing zebrafish embryos in distilled water and a vehicle treatment group that was treated with 2% dimethyl sulfoxide (DMSO) were prepared. The anti-angiogenic compounds were diluted to 1 mg/mL. After incubating at 28 °C for […], the embryos were immersed in 4% paraformaldehyde and dehydrated by gradient ethanol. Subsequently, the embryos were balanced in NTMT buffer (5 M NaCl + 1 M Tris [pH 9.0–9.5] + 1 M MgCl2+ 10% Tween), and nitrotetrazolium blue chloride (NBT) and p-toluidine salt (BCIP) staining were performed. To evaluate the effect of compounds on the angiogenesis of zebrafish embryos, the growth of embryonic sub-intestinal veins (SIVs) at 72 hpf was observed using an IX71 Olympus microscope (Hamburger, Germany). The length of the SIVs was calculated using the image J 1.8.0 software (Bethesda, MD, USA).

In the case of COc1ccc(-c2nnc(N=C3c4ccccc4NC4C=CC(C)=CC34)s2)cc1 (stereo not shown) [6h, 7-methyl-N-(5-(4-methoxyphenyl)-1,3,4-thiadiazol-2-yl)-10,10a-dihydroacridin-9(8aH)-imine], the IC50 [1] is reported as 33.9 ± 1.28 µM, the IC50 [2] is reported as 6.85 ± 0.84 µM and the IC50 [3] is reported as 43.8 ± 2.63 µM. For the same compound, the “apoptosis percentage (early and late)” value ([4]; MGC80-3, 0.5 IC50 (5d 2.76 μM; 6h 3.43 μM)) was 5.62%, the “apoptosis percentage (early and late)” value ([4]; MGC80-3, IC50 (5d 5.52 μM; 6h 6.85 μM)) was 14.25% and the apoptosis ratio [5] was 10.749%. The “MAR (malformation rate)” value ([6]; 1 mg/mL) was 35% ^b, the “MOR (mortality rate)” value ([6]; 1 mg/mL) was 0% and the “MAR (malformation rate)” value ([6]; 1.5 mg/mL) was 80% ^b. The “MOR (mortality rate)” value ([6]; 1.5 mg/mL) was 0%, the “MAR (malformation rate)” value ([6]; 2 mg/mL) was 65% ^b and the “MOR (mortality rate)” value ([6]; 2 mg/mL) was 15% ^b. For the same compound, the “area of the meshed pattern vessel and number of vascular branches in the network” value [7] was “decreased”.
